Compound in assay [1]: C=CC(=O)OCC(F)(F)C(F)(F)C(F)(F)C(F)(F)C(F)(F)C(F)(F)C(F)(F)C(F)F [1H,1H,9H-Perfluorononyl acrylate]
Kind of assay: level (log10 ratio to DMSO vehicle control); higher = higher biomarker level / cell amount than vehicle control. The following applies: in DMSO. As for the experimental part: (§1)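 BioMAP Diversity Plus panel of 12 human primary cell co-culture systems (3C, 4H, LPS, SAg, BT, BF4T, BE3C, CASM3C, HDF3CGF, KF3CT, MyoF, Mphg). Compounds were added 1 h before stimulation and left for 24 h (MyoF 48 h; BT 72 h for soluble read-outs or 6 d for IgG). Biomarkers were read by ELISA, cytotoxicity by SRB, PBMC viability and proliferation by Alamar Blue. Each well value was divided by the mean of 8 DMSO control wells on the same plate and log10 transformed; duplicate blinded samples were tested at 4 concentrations.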

Compound in assay [2]: FC(F)(I)C(F)(F)C(F)(F)C(F)(F)C(F)(F)C(F)(F)I [1,6-Diiodoperfluorohexane]
Described as above. The following applies: 6700 nM; in DMSO. Here is the method:
as §1

± gives the standard deviation of the averaged measurements.

Here are results for 34 test systems from the supplement of paper PMC10331698.

With BF4T:CCL2/MCP-1, the “level (log10)” value in assay [1] (6700 nM) was -0.015 ± 0.047; in assay [1] (20000 nM), -0.0035 ± 0.0035; in assay [1] (60000 nM) it was 0.0155 ± 0.026; in assay [2], -0.172.
The like results for LPS:M-CSF were, in that order, 0.0015 ± 0.032, -0.0025 ± 0.0092, -0.0265 ± 0.057 and -0.008.
Taken in the same sequence, the figures for SAg:PBMC Cytotoxicity were -0.015 ± 0.0057, -0.0795 ± 0.0092, -0.194 ± 0.1 and 0.026.
With BF4T:MMP-3, the “level (log10)” value in assay [1] (6700 nM) was 0.013 ± 0.013; in assay [1] (20000 nM), -0.003 ± 0.045; in assay [1] (60000 nM) it was 0.021 ± 0.0085; in assay [2], -0.029.
The like results for 3C:HLA-DR were, in that order, -0.002 ± 0.0085, 0.0155 ± 0.0021, -0.0055 ± 0.005 and -0.005.
Take SAg:CD38: the “level (log10)” value in assay [1] (6700 nM) was -0.0395 ± 0.035; in assay [1] (20000 nM), -0.0245 ± 0.0035; in assay [1] (60000 nM) it was -0.031 ± 0.011; in assay [2], -0.008.
Taken in the same sequence, the figures for BT:sIL-2 were 0.118 ± 0.042, -0.0285 ± 0.11, -0.514 ± 0.61 and -0.059.
As to BT:B cell Proliferation, the “level (log10)” value was -0.034 ± 0.0042 in assay [1] (6700 nM), -0.0415 ± 0.0035 in assay [1] (20000 nM), -0.253 ± 0.15 in assay [1] (60000 nM) and -0.019 in assay [2].
The like results for 4H:SRB were, in that order, -0.008 ± 0.0042, -0.008 ± 0.0014, -0.0235 ± 0.0021 and 0.009.
Turning to SAg:CXCL9/MIG, the “level (log10)” value in assay [1] (6700 nM) was -0.0135 ± 0.0021; in assay [1] (20000 nM), 0.003 ± 0.0099; in assay [1] (60000 nM) it was -0.0155 ± 0.0078; in assay [2], -0.008.
Taken in the same sequence, the figures for LPS:IL-1alpha were 0.04 ± 0.028, 0.0435 ± 0.03, 0.0325 ± 0.053 and -0.016.
The like results for BF4T:IL-1alpha were, in that order, 0.007 ± 0.0071, 0.017 ± 0.014, 0.005 ± 0.013 and -0.017.
Consider 4H:CD87/uPAR, for which the “level (log10)” value in assay [1] (6700 nM) is -0.024 ± 0.035; in assay [1] (20000 nM), -0.043 ± 0.028; in assay [1] (60000 nM), -0.034 ± 0.061; in assay [2], -0.009.
Taken in the same sequence, the figures for BF4T:CD54/ICAM-1 were -0.0365 ± 0.033, -0.0385 ± 0.049, -0.0455 ± 0.019 and -0.073.
The like results for 4H:CCL2/MCP-1 were, in that order, -0.0255 ± 0.0064, -0.0105 ± 0.028, 0.0245 ± 0.019 and -0.03.
Taken in the same sequence, the figures for LPS:sTNF-alpha were 0.085 ± 0.028, 0.0465 ± 0.042, 0.004 ± 0.086 and -0.007.
For 4H:CD62P/P-selectin, the “level (log10)” value in assay [1] (6700 nM) is -0.0135 ± 0.037; in assay [1] (20000 nM), -0.045 ± 0.011; in assay [1] (60000 nM), -0.109; in assay [2], -0.001.
Taken in the same sequence, the figures for BF4T:MMP-9 were 0.0145 ± 0.019, 0.0235 ± 0.019, 0.031 ± 0.0014 and -0.059.
Taken in the same sequence, the figures for 3C:CXCL9/MIG were 0.009 ± 0.0028, 0.0005 ± 0.011, -0.0055 ± 0.005 and -0.002.
As for SAg:CD40, the “level (log10)” value in assay [1] (6700 nM) is -0.027 ± 0.021; in assay [1] (20000 nM) it was -0.0725 ± 0.023; in assay [1] (60000 nM), -0.133 ± 0.026; in assay [2] it was -0.018.
The like results for BT:Secreted IgG were, in that order, -0.011 ± 0.027, -0.0185 ± 0.039, -0.412 ± 0.43 and 0.019.
The like results for LPS:CD40 were, in that order, -0.001 ± 0.05, -0.0785 ± 0.029, -0.181 ± 0.064 and -0.009.
Turning to BF4T:Keratin 8/18, the “level (log10)” value in assay [1] (6700 nM) is -0.022 ± 0.013; in assay [1] (20000 nM) it was -0.007 ± 0.013; in assay [1] (60000 nM) it was -0.0385 ± 0.037; in assay [2], 0.024.
The like results for BF4T:tPA were, in that order, -0.0135 ± 0.028, -0.006 ± 0.011, -0.0395 ± 0.026 and -0.119.
Taken in the same sequence, the figures for 3C:SRB were 0.0015 ± 0.0078, 0.016 ± 0.0042, -0.014 ± 0.023 and 0.03.
Turning to 3C:Proliferation, the “level (log10)” value in assay [1] (6700 nM) is -0.092 ± 0.031; in assay [1] (20000 nM), -0.186 ± 0.021; in assay [1] (60000 nM), -0.415 ± 0.013; in assay [2] it was -0.102.
For SAg:Proliferation, the “level (log10)” value in assay [1] (6700 nM) is -0.024 ± 0.0014; in assay [1] (20000 nM), -0.166 ± 0.029; in assay [1] (60000 nM) it was -0.58 ± 0.14; in assay [2], -0.028.
The like results for BE3C:IL-1alpha were, in that order, -0.01 ± 0.0085, -0.021 ± 0.018, -0.03 ± 0.021 and -0.004.
For the test system BF4T:SRB, the “level (log10)” value is -0.0045 ± 0.005 in assay [1] (6700 nM), -0.001 ± 0.016 in assay [1] (20000 nM), 0.0065 ± 0.021 in assay [1] (60000 nM) and -0.016 in assay [2].
As to LPS:CCL2/MCP-1, the “level (log10)” value was -0.023 ± 0.021 in assay [1] (6700 nM), -0.007 ± 0.045 in assay [1] (20000 nM), -0.055 ± 0.0085 in assay [1] (60000 nM) and 0.01 in assay [2].
For BF4T:CXCL8/IL-8, the “level (log10)” value was -0.0025 ± 0.061 in assay [1] (6700 nM), 0.0315 ± 0.053 in assay [1] (20000 nM), 0.0175 ± 0.012 in assay [1] (60000 nM) and -0.014 in assay [2].
Take SAg:CD62E/E-Selectin: the “level (log10)” value in assay [1] (6700 nM) is -0.0345 ± 0.016; in assay [1] (20000 nM) it was -0.0595 ± 0.015; in assay [1] (60000 nM), -0.121 ± 0.052; in assay [2], 0.
Taken in the same sequence, the figures for BT:sIL-6 were -0.073 ± 0.018, -0.269 ± 0.07, -0.693 ± 0.5 and -0.018.
SAg:CXCL8/IL-8: the “level (log10)” value in assay [1] (6700 nM) is -0.068 ± 0.0028; in assay [1] (20000 nM), -0.0845 ± 0.026; in assay [1] (60000 nM), -0.0975 ± 0.14; in assay [2], -0.012.
